According to PMC8348901, “Novel N-Substituted 3-Aryl-4-(diethoxyphosphoryl)azetidin-2-ones as Antibiotic Enhancers and Antiviral Agents in Search for a Successful Treatment of Complex Infections” (International Journal of Molecular Sciences, 2021):
Where two headings read alike, the source gives them in different places.

Experiments:
[1] = test system: hTERT RPE-1 normal retina (non-cancerous) cells; test: Cytostatic activity (cell proliferation); format: cell-based
Method: (§1) The 50% cytostatic inhibitory concentration (IC50) causing a 50% decrease in cell proliferation was determined for all obtained compounds toward 9 cancerous cell lines, i.e.,: Capan-1 (pancreatic adenocarcinoma), Hap1 (chronic myeloid leukemia), HCT-116 (colorectal carcinoma), NCI-H460 (lung carcinoma), DND-41 (acute lymphoblastic leukemia), HL-60 (acute myeloid leukemia), K-562 (chronic myeloid leukemia), MM.1S (multiple myeloma), Z-138 non-Hodgkin lymphoma), as well as normal retina (non-cancerous) cells (hTERT RPE-1). Docetaxel, etoposide and stauroporine were used as the reference compounds.
(§2) All assays were performed in 96-well microtiter plates. To each well was added (5–7.5) × 10^4 tumor cells and a given amount of the tested compound. The cells were allowed to proliferate at 37 °C in a humidified, CO2-controlled atmosphere. At the end of the incubation period, the cells were counted in a Coulter counter. The IC50 (50% inhibitory concentration) was defined as the concentration of the compound that inhibited cell proliferation by 50%.

[2] = test system: NCI-H460 (lung carcinoma); test: Cytostatic activity (cell proliferation); format: cell-based
Method: as §1, §2

[3] = test system: Hap1 (chronic myeloid leukemia); test: Cytostatic activity (cell proliferation); format: cell-based
Method: as §1, §2

[4] = test system: HCT-116 (colorectal carcinoma); test: Cytostatic activity (cell proliferation); format: cell-based
Method: as §1, §2

[5] = test system: DND-41 (acute lymphoblastic leukemia); test: Cytostatic activity (cell proliferation); format: cell-based
Method: as §1, §2

MRSA HEMSA 5 = test: Oxacillin MIC reduction (adjuvant) microdilution assay; format: cell-based, Staphylococcus aureus; conditions: for Activity Gain [A]: MIC(OXA)/MIC(OXA+Cpd), compound 0.5 mM, adjuvant activity if A ≥ 4; for OXA+ Cpd MIC: oxacillin MIC in presence of 0.5 mM compound
Method: (§3) Since the lack of direct antibacterial activity of the obtained azetidinones was observed, all isomers trans and cis were investigated on their “adjuvant” properties, i.e., an ability to enhance the effectiveness of antibiotics against S. aureus strains. Thus, the compounds were tested in combination with the known β-lactam antibiotic, oxacillin, in the microdilution assays. The ability of the tested azetidinones to reduce minimum inhibitory concentration (MIC) of oxacillin against both, the referenced and the resistant S. aureus strains, was assessed.
(§4) The in-vitro antibacterial property and the capacity of tested compounds to increase the efficacy of antibiotics were evaluated in two Staphylococcus aureus strains, i.e., the reference clonal complex 5 (CC5) methicillin-susceptible (MSSA) strain ATCC 25923, and the methicillin-resistant (MRSA) extensively drug-resistant (XDR) clinical isolate HEMSA-5 [46].
(§5) In order to assess the increase of antibiotic efficacy, the assays were conducted by determining if/to what extent the investigated compounds reduce MICs of oxacillin by means of a serial dilution broth microplate method, in accordance with the CLSI requirements. The concentrations of compounds used in the MICs reduction assay were no greater than 1/4 of their respective MICs to ensure that cell viability was not affected by the intrinsic antibacterial activity of the molecules. Serial two-fold dilutions of oxacillin (Sigma-Aldrich; St. Louis, MI, USA, cat. no. 28221), were prepared in […] of the Mueller–Hinton broth (Merck; Darmstadt, Germany, cat. no. 1102930500). Suitable concentrations of the compounds (total volume […]) were then added. Bacterial suspensions were diluted to OD ¼ 0.5. The resulting suspensions were then diluted 1:100 and added in the volume of […] into the oxacillin serial dilutions with the compounds. The results were read after 20-h incubation at 37 °C.
(§6) The ability of compounds to improve antibiotic efficacy was expressed as the activity gain [A] parameter calculated according to the formula given in Figure 10.
(§7) Figure 10 Activity gain. MICAnt corresponds to the MIC of oxacillin in the absence of a compound tested and MICAnt + Comp refers to the MIC of oxacillin paired with a compound tested.

S. aureus ATCC 25923 = test: as above; format: cell-based, Staphylococcus aureus; conditions: for Activity Gain [A]: MIC(OXA)/MIC(OXA+Cpd), compound 0.5 mM, adjuvant activity if A ≥ 4; for OXA+ Cpd MIC: oxacillin MIC in presence of 0.5 mM compound
Method: as §3, §4, §5, §6, §7

[6] = test system: Capan-1 (pancreatic adenocarcinoma); test: Cytostatic activity (cell proliferation); format: cell-based
Method: as §1, with “RPE-1).” for “RPE-1). Docetaxel, etoposide and stauroporine were used as the reference compounds.”
as §2, with “counter.” for “counter. The IC50 (50% inhibitory concentration) was defined as the concentration of the compound that inhibited cell proliferation by 50%.”

| SMILES | IC50 [1] [µM] | IC50 [2] [µM] | IC50 [3] [µM] | IC50 [4] [µM] | IC50 [5] [µM] | Activity Gain [A] (MRSA HEMSA 5) | OXA+ Cpd MIC (MRSA HEMSA 5) [µg/mL] | Activity Gain [A] (S. aureus ATCC 25923) | OXA+ Cpd MIC (S. aureus ATCC 25923) [µg/mL] | IC50 [6] [µM] | IC50 ([1]; hTERT-RPE1) [µM] | IC50 ([2]; Homo sapiens, NCI-H460) [µM] | IC50 ([3]; Homo sapiens, HAP1) [µM] | IC50 ([4]; Homo sapiens, HCT-116) [µM] | IC50 ([5]; DND41) [µM] | IC50 ([6]; Homo sapiens, CAPAN-1) [µM] | MIC (MRSA HEMSA 5; Staphylococcus aureus, oxacillin alone, read-out: OXA MIC) [µg/mL] | MIC (S. aureus ATCC 25923; Staphylococcus aureus, ATCC25923, oxacillin alone, read-out: OXA MIC) [µg/mL] |
| --- | --- | --- | --- | --- | --- | --- | --- | --- | --- | --- | --- | --- | --- | --- | --- | --- | --- | --- |
| CCOP(=O)(OCC)[C@@H]1[C@H](c2ccccc2)C(=O)N1C (relative stereo) [cis-10a, cis-N-methyl-3-phenyl-4-(diethoxyphosphoryl)azetidin-2-one] | > 100 | > 100 | 46.3 | > 100 | > 100 | 1–2 | 256 to 512 | 0.5 | 1 | 37.8 |  |  |  |  |  |  |  |  |
| CCOP(=O)(OCC)[C@@H]1[C@H](c2ccccc2F)C(=O)N1C (relative stereo) [cis-10b, cis-N-methyl-3-(2-fluorophenyl)-4-(diethoxyphosphoryl)azetidin-2-one] |  |  |  |  |  | 1 |  | 0.5 |  |  | > 100 | 45.2 | 14.5 | > 100 | > 100 | 31.9 |  |  |
| CCOP(=O)(OCC)[C@@H]1[C@H](c2ccc(F)cc2)C(=O)N1C (relative stereo) [cis-10d, cis-N-methyl-3-(4-fluorophenyl)-4-(diethoxyphosphoryl)azetidin-2-one] |  |  |  |  |  | 1 |  | 0.5 |  |  | > 100 | 71 | 70.3 | 86.5 | > 100 | > 100 |  |  |
| CCOP(=O)(OCC)[C@@H]1[C@H](c2ccc(F)cc2F)C(=O)N1C (relative stereo) [cis-10e, cis-N-methyl-3-(2,4-difluorophenyl)-4-(diethoxyphosphoryl)azetidin-2-one] |  |  |  |  |  | 1 |  | 1 |  |  | > 100 | 92.6 | > 100 | > 100 | > 100 | 56.8 |  |  |
| CCOP(=O)(OCC)[C@@H]1[C@H](c2ccc(F)c(C)c2)C(=O)N1C (relative stereo) [cis-10f, cis-N-methyl-3-(4-fluoro-3-methylphenyl)-4-(diethoxyphosphoryl)azetidin-2-one] |  |  |  |  |  | 1–2 |  | 0.5 |  |  | > 100 | 87 | 97.9 | > 100 | > 100 | 61.4 |  |  |
| CCOP(=O)(OCC)[C@@H]1[C@H](c2ccccc2)C(=O)N1Cc1ccccc1 (relative stereo) [cis-11a, cis-N-benzyl-3-phenyl-4-(diethoxyphosphoryl)azetidin-2-one] |  |  |  |  |  | 1–2 |  | 0.5 |  |  | > 100 | 78.8 | > 100 | 87.9 | > 100 | 95.2 |  |  |
| CCOP(=O)(OCC)[C@@H]1[C@H](c2ccccc2F)C(=O)N1Cc1ccccc1 (relative stereo) [cis-11b, cis-N-benzyl-3-(2-fluorophenyl)-4-(diethoxyphosphoryl)azetidin-2-one] |  |  |  |  |  | 1 |  | 1 |  |  | > 100 | 72.8 | > 100 | 74.1 | > 100 | 53 |  |  |
| CCOP(=O)(OCC)[C@@H]1[C@H](c2ccc(F)cc2)C(=O)N1Cc1ccccc1 (relative stereo) [cis-11d, cis-N-benzyl-3-(4-fluorophenyl)-4-(diethoxyphosphoryl)azetidin-2-one] |  |  |  |  |  | 1 |  | 1 |  |  | > 100 | 45.9 | 61.9 | 54.1 | > 100 | 35.9 |  |  |
| CCOP(=O)(OCC)[C@@H]1[C@H](c2ccc(F)cc2F)C(=O)N1Cc1ccccc1 (relative stereo) [cis-11e, cis-N-benzyl-3-(2,4-difluorophenyl)-4-(diethoxyphosphoryl)azetidin-2-one] |  |  |  |  |  | 1 |  | 0.5 |  |  | > 100 | 43 | > 100 | > 100 | > 100 | 48.9 |  |  |
| CCOP(=O)(OCC)[C@H]1[C@H](c2ccccc2)C(=O)N1C (relative stereo) [trans-10a, trans-N-methyl-3-phenyl-4-(diethoxyphosphoryl)azetidin-2-one] | > 100 | 54.6 | > 100 | > 100 | > 100 | 1 | 512 | 1 | 0.5 | 46.2 |  |  |  |  |  |  |  |  |
| CCOP(=O)(OCC)[C@H]1[C@H](c2ccccc2F)C(=O)N1C (relative stereo) [trans-10b, trans-N-methyl-3-(2-fluorophenyl)-4-(diethoxyphosphoryl)azetidin-2-one] |  |  |  |  |  | 1 |  | 0.5 |  |  | > 100 | 34.8 | 38.7 | 44.1 | > 100 | 53.1 |  |  |
| CCOP(=O)(OCC)[C@H]1[C@H](c2cccc(F)c2)C(=O)N1C (relative stereo) [trans-10c, trans-N-methyl-3-(3-fluorophenyl)-4-(diethoxyphosphoryl)azetidin-2-one] |  |  |  |  |  | 1 |  | 0.5 |  |  | > 100 | 62.8 | 69.1 | > 100 | > 100 | 19.6 |  |  |
| CC(=O)O[C@@]12CO[C@@H]1C[C@H](O)[C@@]1(C)C(=O)[C@H](O)C3=C(C)[C@@H](OC(=O)[C@H](O)[C@@H](NC(=O)OC(C)(C)C)c4ccccc4)C[C@@](O)([C@@H](OC(=O)c4ccccc4)[C@H]21)C3(C)C [Docetaxel, reference compound] |  |  |  |  |  |  |  |  |  |  | 25 | 0.89 | 1.19 | 0.25 | 1.63 | 0.95 |  |  |
| COc1cc([C@@H]2c3cc4c(cc3[C@@H](O[C@@H]3O[C@@H]5CO[C@@H](C)O[C@H]5[C@H](O)[C@H]3O)[C@H]3COC(=O)[C@H]23)OCO4)cc(OC)c1O [Etoposide, reference compound] |  |  |  |  |  |  |  |  |  |  | 0.23 | 1.35 | 0.04 |  | 0.06 | 0.15 |  |  |
| CN[C@@H]1C[C@H]2O[C@@](C)([C@@H]1OC)n1c3ccccc3c3c4c(c5c6ccccc6n2c5c31)C(=O)NC4 [Stauroporine, reference compound] | 0.25 | 11.5 | 3.55 | 0.09 | 21.5 |  |  |  |  |  |  |  |  |  |  |  |  |  |
| Cc1onc(-c2ccccc2)c1C(=O)N[C@@H]1C(=O)N2[C@@H]1SC(C)(C)[C@@H]2C(=O)O [oxacillin, reference compound] |  |  |  |  |  |  |  |  |  |  |  |  |  |  |  |  | 512 | 0.5 |
